# Measured values published in EP0061157A1, “2-Benzoylamino substituted benzylamine derivative and a process for preparation thereof” (Hokuriku Pharmaceutical Co.,Ltd, priority 1981, dated 1982).
# Counter-ions that a name gives are not always drawn. Marks after values point to notes of the source that are not given here.
# Legend:
# tracheal secretory cells = assay: Effect on the secretory activity of the tracheal secretory cells (isolated tracheal strips, AB/PAS staining, A^IWR); format: cell-based, dogs; settings: for Acinar Inner Diameter of Submucosal Gland to Wall Ratio (A^IWR): dog tracheal strips incubated 30 minutes, control 5.0 x 10^-2; for activation at 10 µM / activation at 1 µM / activation at 0.1 µM: Canis lupus familiaris, 0.5 h, relative to control, read-out: Increasing Rate in A^IWR (%)
# Experimental: Experiments were performed following the method of Yanaura et al. (Nippon Yakurigaku Zasshi, 77, 559 - 568 (1981)). Male mongrel dogs weighing 10 to 12 kg were anesthetized with sodium pentobarbital (30 mg/kg, i.v.). The trachea was quickly excised about 10 cm long and rapidly […] to a Hanks' solution (95% 02 - 5% CO2, 37 + 1° ). Connective tissues around were removed and the trachea was cut into strips about 2 cm long. The tracheal strips were preincubated for 30 minutes in Hanks' solution, and then drugs were added to the solution and the mixtures were further incubated for 30 minutes. The tracheal strips were then fixed with a 10% formaldehyde isotonic solution followed by dehydrating in a series of graded ethanol concentrations and paraffinembedding in a conventional manner. Sections 4 µm thick were cut with a Jung type microtome and stained with alcian blue (pH 2.5) - periodic acid Schiff (AB (pH 2.5)/PAS). The specimens were studied by the optical microscopic observation with the effects of drugs on the secretory activities of the tracheal secretory cells and on the dissolution of acid glycoprotein in submucosal glandular cells of the tracheal. A thickness between basement membrance and cartilage (thickness of […]; wall is referred to as "W"), and acinar inner diameter of submucosal gland (A^I) were measured. Then, acinar inner diameter of submucosal gland to wall ratio (A^IWR) was calculated. Increase of A^IWR reflects enhancement of the secretory activity in submucosal gland. If test drug has a significant increase in A^IWR, it has a respiratory tract fluid (RTF) - increasing effect.
# [1] = system: acid glycoprotein in submucosal glandular cells of the trachea; assay: Effect on the dissolution of acid glycoprotein in submucosal glandular cells of the trachea (isolated tracheal strips, AB/PAS staining); format: cell-based, dogs; settings: for Ratio of Glandular Cells Containing Acid Glycoprotein to Total Glandular Cells (%): control 72.4; for EC50: Canis lupus familiaris, dose required for decreasing acid glycoprotein by 50%, calculated from Table III data, read-out: ED50 (the source's name); for Potency Ratio: from ED50, dose of reference drug 1 made 1
# Experimental: Experiments were performed following the method of Yanaura et al. (Nippon Yakurigaku Zasshi, 77, 559 - 568 (1981)). Male mongrel dogs weighing 10 to 12 kg were anesthetized with sodium pentobarbital (30 mg/kg, i.v.). The trachea was quickly excised about 10 cm long and rapidly […] to a Hanks' solution (95% 02 - 5% CO2, 37 + 1° ). Connective tissues around were removed and the trachea was cut into strips about 2 cm long. The tracheal strips were preincubated for 30 minutes in Hanks' solution, and then drugs were added to the solution and the mixtures were further incubated for 30 minutes. The tracheal strips were then fixed with a 10% formaldehyde isotonic solution followed by dehydrating in a series of graded ethanol concentrations and paraffinembedding in a conventional manner. Sections 4 µm thick were cut with a Jung type microtome and stained with alcian blue (pH 2.5) - periodic acid Schiff (AB (pH 2.5)/PAS). The specimens were studied by the optical microscopic observation with the effects of drugs on the secretory activities of the tracheal secretory cells and on the dissolution of acid glycoprotein in submucosal glandular cells of the tracheal. As a tracheal mucus dissolution activity, an effect on the dissolution of acid glycoprotein in submucosal glandular cells was observed. In double staining with AB (pH 2.5)/PAS, submucosal glandular cells containing much acid glycoprotein were strongly stained blue because of the reaction with AB. When acid glycoprotein in glandular cells is dissolved and its acid groups were lost, it is stained with PAS instead of AB. Consequently, submucosal glandular cells turned to red from blue in color. The ratio of blue glandular cells to total glandular cells was observed, and the effect on the dissolution of acid glycoprotein was estimated by decrease in the ratio. Based on the above data, a dose of each of the compounds tested required for decreasing acid glycoprotein by 50% (ED50) was calculated. Further, a potency ratio was determined when the dose of reference drug 1 was made 1.
# Acute toxicity test = settings: mouse, in vivo, mice, Litchfield-Wilcoxon, dead animals within 7 days
# Experimental: Male mice of ddy-strain weighing 20 to 25 g were used. Drugs were administered orally and intraperitoneally to 10 mice in each group. LD50 was calculated by the Litchfield-Wilcoxon method from dead animals within 7 days.
# [2] = compared with reference drugs 1 and 2
structure (smiles),measurement,setting,value
"COc1cc(C(=O)Nc2c(Br)cc(Br)cc2CN(C)C2CCCCC2)ccc1O.Cl [Compound of This Invention, 2-(4-Hydroxy-3-methoxybenzoylamino)-3,5-dibromo-N-cyclohexyl-N-methylbenzylamine hydrochloride]",Acinar Inner Diameter of Submucosal Gland to Wall Ratio (A^IWR),tracheal secretory cells; 1 x 10^-5M,7.3 x 10^-2**
same,Acinar Inner Diameter of Submucosal Gland to Wall Ratio (A^IWR),tracheal secretory cells; 1 x 10^-6M,7.1 x 10^-2**
same,Acinar Inner Diameter of Submucosal Gland to Wall Ratio (A^IWR),tracheal secretory cells; 1 x 10^-7M,6.1 x 10^-2*
same,activation at 10 µM,tracheal secretory cells; 1 x 10^-5M,46%
same,activation at 1 µM,tracheal secretory cells; 1 x 10^-6M,42%
same,activation at 0.1 µM,tracheal secretory cells; 1 x 10^-7M,22%
same,"enhancement in A^IWR, times as strong as that of reference drugs 1 and 2",tracheal secretory cells; [2],about 10 times
same,Ratio of Glandular Cells Containing Acid Glycoprotein to Total Glandular Cells (%),[1]; 1 x 10^-5 M,10.6** %
same,Ratio of Glandular Cells Containing Acid Glycoprotein to Total Glandular Cells (%),[1]; 1 x 10^-6 M,21.6** %
same,Ratio of Glandular Cells Containing Acid Glycoprotein to Total Glandular Cells (%),[1]; 1 x 10^-7 M,42.0** %
same,EC50,[1],0.23 µM
same,"mucolytic activity (dissolution of acid glycoprotein), times stronger than that of reference drugs 1 and 2",[1]; [2],10 times
same,Potency Ratio,[1],10.87
same,LD50 at 168 h,"Acute toxicity test; ip, I.P.",> 4000 mg/kg
same,LD50 at 168 h,"Acute toxicity test; po, P.O.",> 12000 mg/kg
"COc1cc(C(=O)Nc2c(Br)cc(Br)cc2CN(C)C2CCCCC2)ccc1OC(C)=O [Reference Drug 1, 2-(4-Acetoxy-3-methoxybenzoylamino)-3.5-dibromo-N-cyclohexyl-N-methylbenzylamine hydrochloride]",Acinar Inner Diameter of Submucosal Gland to Wall Ratio (A^IWR),tracheal secretory cells; 1 x 10^-5M,6.5 x 10^-2**
same,Acinar Inner Diameter of Submucosal Gland to Wall Ratio (A^IWR),tracheal secretory cells; 1 x 10^-6M,6.2 x 10^-2*
same,Acinar Inner Diameter of Submucosal Gland to Wall Ratio (A^IWR),tracheal secretory cells; 1 x 10^-7M,5.3 x 10^-2
same,activation at 10 µM,tracheal secretory cells; 1 x 10^-5M,30%
same,activation at 1 µM,tracheal secretory cells; 1 x 10^-6M,24%
same,activation at 0.1 µM,tracheal secretory cells; 1 x 10^-7M,6%
same,Ratio of Glandular Cells Containing Acid Glycoprotein to Total Glandular Cells (%),[1]; 1 x 10^-5 M,23.8** %
same,Ratio of Glandular Cells Containing Acid Glycoprotein to Total Glandular Cells (%),[1]; 1 x 10^-6 M,46.8** %
same,Ratio of Glandular Cells Containing Acid Glycoprotein to Total Glandular Cells (%),[1]; 1 x 10^-7 M,71.0%
same,EC50,[1],2.5 µM
same,LD50 at 168 h,"Acute toxicity test; ip, I.P.",> 4000 mg/kg
same,LD50 at 168 h,"Acute toxicity test; po, P.O.",> 12000 mg/kg
"CN(Cc1cc(Br)cc(Br)c1N)C1CCCCC1.Cl [Reference Drug 2, 2-Amino-3,5-dibromo-N-cyclohexyl-N-methylbenzylamine hydrochloride]",Acinar Inner Diameter of Submucosal Gland to Wall Ratio (A^IWR),tracheal secretory cells; 1 x 10^-5M,6.2 x 10^-2*
same,Acinar Inner Diameter of Submucosal Gland to Wall Ratio (A^IWR),tracheal secretory cells; 1 x 10^-6M,5.6 x 10^-2
same,Acinar Inner Diameter of Submucosal Gland to Wall Ratio (A^IWR),tracheal secretory cells; 1 x 10^-7M,5.2 x 10^-2
same,activation at 10 µM,tracheal secretory cells; 1 x 10^-5M,24%
same,activation at 1 µM,tracheal secretory cells; 1 x 10^-6M,12%
same,activation at 0.1 µM,tracheal secretory cells; 1 x 10^-7M,4%
same,Ratio of Glandular Cells Containing Acid Glycoprotein to Total Glandular Cells (%),[1]; 1 x 10^-5 M,17.5** %
same,Ratio of Glandular Cells Containing Acid Glycoprotein to Total Glandular Cells (%),[1]; 1 x 10^-6 M,30.0** %
same,Ratio of Glandular Cells Containing Acid Glycoprotein to Total Glandular Cells (%),[1]; 1 x 10^-7 M,66.2%
same,EC50,[1],1.3 µM
same,Potency Ratio,[1],1.92
same,LD50 at 168 h,"Acute toxicity test; ip, I.P.",2320 mg/kg
same,LD50 at 168 h,"Acute toxicity test; po, P.O.",9000 mg/kg
